Results: patent US5358951A, “Angiotensin II receptor blocking 2, 3, 6 substituted quinazolinones” (American Cyanamid Company, priority 1993, dated 1994)

System: vasopressor response of angiotensin II
Experiment: AII Challenge: antagonism of angiotensin II vasopressor response;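 on Response Average Change: post-dose Angiotensin II-evoked rise in systolic blood pressure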
Format: in vivo
Conditions: for inhibition in vivo at 3 mg/kg / inhibition in vivo at 5 mg/kg: Rattus norvegicus; for inhibition in vivo at 3 mg/kg: iv; for inhibition in vivo at 5 mg/kg: po
Excerpt: Conscious Male Okamoto-Aoki SHR, 16-20 weeks old, weighing approximately 330 g are purchased from Charles River Labs (Wilmington, Mass.). Conscious rats are restrained in a supine position with elastic tape. The area at the base of the tail is locally anesthetized by subcutaneous infiltration with 2% procaine. The ventral caudal artery and vein are isolated, and a cannula made of polyethylene (PE) 10-20 tubing (fused together by heat) is passed into the lower abdominal aorta and vena cava, respectively. The cannula is secured, heparinized (1,000 I.U./ml), sealed and the wound is closed. The animals are placed in plastic restraining cages in an upright position. The cannula is attached to a Statham P23 Db pressure transducer, and pulsatile blood pressure is recorded to 10-15 minutes with a Gould Brush recorder. (Chan et al., (Drug Development Res., 18:75-94, 1989). Angiotensin II (human sequence, Sigma Chem. Co., St. Louis, Mo.) of 0.05 and 0.1 ug/kg i.v. is injected into all rats (predosing response). Then a test compound, vehicle or a known angiotensin II antagonist is administered i.v., i.p. or orally to each set of rats. The two doses of angiotensin II are given to each rat again at 30, 60, 90, 120, 180, 240 and 300 minutes post dosing the compound or vehicle. The vasopressor response of angiotensin II is measured for the increase in systolic blood pressure in mmHg. The percentage of antagonism or blockade of the vasopressor response of angiotensin II by a compound is calculated using the vasopressor response (increase in systolic blood pressure) of angiotensin II of each rat predosing the compound as 100%.

With `CCCCc1nc2ccc([C@]3(C)C[C@@H]4CCCN4O3)cc2c(=O)n1Cc1ccc(-c2ccccc2-c2nnn[nH]2)cc1` (relative stereo) [Example 59, Trans-2-Butyl-6-(hexahydro-2-methylpyrrolo[1,2-b]isoxazol-2-yl)-3-[[2'-(1H-tetrazol-5-yl)[1,1'-biphenyl]-4-yl]methyl]-4(3H)-quinazolinone] the “Response Average Change” value (3 mg/kg I.V., AII 0.05 mcg/kg IV, 30 min post dose) was 17.5 mmHg, the “Response Average Change” value (3 mg/kg I.V., AII 0.05 mcg/kg IV, 60 min post dose) was 9 mmHg and the “Response Average Change” value (3 mg/kg I.V., AII 0.05 mcg/kg IV, 90 min post dose) was 18.5 mmHg. For the same compound, the “Response Average Change” value (3 mg/kg I.V., AII 0.05 mcg/kg IV, 120 min post dose) was 9.5 mmHg, the “Response Average Change” value (3 mg/kg I.V., AII 0.05 mcg/kg IV, 180 min post dose) was 20 mmHg and the “Response Average Change” value (3 mg/kg I.V., AII 0.05 mcg/kg IV, 240 min post dose) was 18.5 mmHg. The “Response Average Change” value (3 mg/kg I.V., AII 0.1 mcg/kg IV, 30 min post dose) was 21 mmHg, the “Response Average Change” value (3 mg/kg I.V., AII 0.1 mcg/kg IV, 60 min post dose) was 23.5 mmHg and the “Response Average Change” value (3 mg/kg I.V., AII 0.1 mcg/kg IV, 90 min post dose) was 17.5 mmHg. The “Response Average Change” value (3 mg/kg I.V., AII 0.1 mcg/kg IV, 120 min post dose) was 12.5 mmHg, the “Response Average Change” value (3 mg/kg I.V., AII 0.1 mcg/kg IV, 180 min post dose) was 22.5 mmHg and the “Response Average Change” value (3 mg/kg I.V., AII 0.1 mcg/kg IV, 240 min post dose) was 27.5 mmHg. The “Response Average Change” value (5 mg/kg P.O., AII 0.05 mcg/kg IV, 30 min post dose) was 19 mmHg, the “Response Average Change” value (5 mg/kg P.O., AII 0.05 mcg/kg IV, 60 min post dose) was 12.5 mmHg and the “Response Average Change” value (5 mg/kg P.O., AII 0.05 mcg/kg IV, 90 min post dose) was 17.5 mmHg. The “Response Average Change” value (5 mg/kg P.O., AII 0.05 mcg/kg IV, 120 min post dose) was 24 mmHg, the “Response Average Change” value (5 mg/kg P.O., AII 0.05 mcg/kg IV, 180 min post dose) was 18.5 mmHg and the “Response Average Change” value (5 mg/kg P.O., AII 0.05 mcg/kg IV, 240 min post dose) was 12.5 mmHg. For the same compound, the “Response Average Change” value (5 mg/kg P.O., AII 0.05 mcg/kg IV, 300 min post dose) was 12.5 mmHg, the “Response Average Change” value (5 mg/kg P.O., AII 0.1 mcg/kg IV, 30 min post dose) was 22.5 mmHg and the “Response Average Change” value (5 mg/kg P.O., AII 0.1 mcg/kg IV, 60 min post dose) was 12.5 mmHg. The “Response Average Change” value (5 mg/kg P.O., AII 0.1 mcg/kg IV, 90 min post dose) was 17.5 mmHg, the “Response Average Change” value (5 mg/kg P.O., AII 0.1 mcg/kg IV, 120 min post dose) was 17.5 mmHg and the “Response Average Change” value (5 mg/kg P.O., AII 0.1 mcg/kg IV, 180 min post dose) was 14 mmHg. The “Response Average Change” value (5 mg/kg P.O., AII 0.1 mcg/kg IV, 240 min post dose) was 10 mmHg, the “Response Average Change” value (5 mg/kg P.O., AII 0.1 mcg/kg IV, 300 min post dose) was 10 mmHg and the inhibition in vivo at 3 mg/kg (0.5 h, 3 mg/kg I.V., AII 0.05 mcg/kg IV, 30 min post dose) was 49%. For the same compound, the inhibition in vivo at 3 mg/kg (0.5 h, 3 mg/kg I.V., AII 0.1 mcg/kg IV, 30 min post dose) was 49%, the inhibition in vivo at 3 mg/kg (1 h, 3 mg/kg I.V., AII 0.05 mcg/kg IV, 60 min post dose) was 74% and the inhibition in vivo at 3 mg/kg (1 h, 3 mg/kg I.V., AII 0.1 mcg/kg IV, 60 min post dose) was 43%. It also gave an inhibition in vivo at 3 mg/kg (2 h, 3 mg/kg I.V., AII 0.05 mcg/kg IV, 120 min post dose) of 72%, an inhibition in vivo at 3 mg/kg (2 h, 3 mg/kg I.V., AII 0.1 mcg/kg IV, 120 min post dose) of 70% and an inhibition in vivo at 3 mg/kg (3 h, 3 mg/kg I.V., AII 0.05 mcg/kg IV, 180 min post dose) of 41%. The inhibition in vivo at 3 mg/kg (3 h, 3 mg/kg I.V., AII 0.1 mcg/kg IV, 180 min post dose) was 45%, the inhibition in vivo at 3 mg/kg (4 h, 3 mg/kg I.V., AII 0.05 mcg/kg IV, 240 min post dose) was 46% and the inhibition in vivo at 3 mg/kg (4 h, 3 mg/kg I.V., AII 0.1 mcg/kg IV, 240 min post dose) was 33%. For the same compound, the inhibition in vivo at 3 mg/kg ([…], 3 mg/kg I.V., AII 0.05 mcg/kg IV, 90 min post dose) was 46%, the inhibition in vivo at 3 mg/kg ([…], 3 mg/kg I.V., AII 0.1 mcg/kg IV, 90 min post dose) was 57% and the inhibition in vivo at 5 mg/kg (0.5 h, 5 mg/kg P.O., AII 0.05 mcg/kg IV, 30 min post dose) was 49%. It also gave an inhibition in vivo at 5 mg/kg (0.5 h, 5 mg/kg P.O., AII 0.1 mcg/kg IV, 30 min post dose) of 49%, an inhibition in vivo at 5 mg/kg (1 h, 5 mg/kg P.O., AII 0.05 mcg/kg IV, 60 min post dose) of 67% and an inhibition in vivo at 5 mg/kg (1 h, 5 mg/kg P.O., AII 0.1 mcg/kg IV, 60 min post dose) of 72%. For the same compound, the inhibition in vivo at 5 mg/kg (2 h, 5 mg/kg P.O., AII 0.05 mcg/kg IV, 120 min post dose) was 36%, the inhibition in vivo at 5 mg/kg (2 h, 5 mg/kg P.O., AII 0.1 mcg/kg IV, 120 min post dose) was 60% and the inhibition in vivo at 5 mg/kg (3 h, 5 mg/kg P.O., AII 0.05 mcg/kg IV, 180 min post dose) was 51%. The inhibition in vivo at 5 mg/kg (3 h, 5 mg/kg P.O., AII 0.1 mcg/kg IV, 180 min post dose) was 68%, the inhibition in vivo at 5 mg/kg (4 h, 5 mg/kg P.O., AII 0.05 mcg/kg IV, 240 min post dose) was 67% and the inhibition in vivo at 5 mg/kg (4 h, 5 mg/kg P.O., AII 0.1 mcg/kg IV, 240 min post dose) was 77%. It also gave an inhibition in vivo at 5 mg/kg (5 h, 5 mg/kg P.O., AII 0.05 mcg/kg IV, 300 min post dose) of 67%, an inhibition in vivo at 5 mg/kg (5 h, 5 mg/kg P.O., AII 0.1 mcg/kg IV, 300 min post dose) of 77% and an inhibition in vivo at 5 mg/kg ([…], 5 mg/kg P.O., AII 0.05 mcg/kg IV, 90 min post dose) of 53%. The inhibition in vivo at 5 mg/kg ([…], 5 mg/kg P.O., AII 0.1 mcg/kg IV, 90 min post dose) was 60%.
